Consider 14 molecules from PMC6268995, “(E)-5-Styryl-1H-indole and (E)-6-Styrylquinoline Derivatives Serve as Probes for β-Amyloid Plaques” (Molecules, 2012).

One series concerns the target T1, Aβ1–40 aggregates (Homo sapiens, UniProt P05067).
T1 construct: β-amyloid(1–40) were purchased from AnaSpec; purchased AnaSpec (San Jose, CA, USA)
In words: Competition binding assay on Aβ1–40 aggregates using [125I]TZDM as radio-ligand. Conditions: Aβ1–40 aggregates against [125I]TZDM; triplicate, mean ± SD. Here is the method:
The lyophilized white powder of β-amyloid(1–40) were purchased from AnaSpec (San Jose, CA, USA). After reconstituted by adding basic buffer (1% NH4OH. 60–70 μL) to β-amyloid (1–40) (1 mg) aggregation of Aβ1–40 was carried out by gently dissolving Aβ1–40 (0.25 mg/mL) in a PBS buffer (pH 7.4). The solution was incubated at 37 °C for 72 h with gentle and constant shaking. Binding studies were carried out according to the procedure described previously with some modifications using [^125I]TZDM as the radiolabeled standard. […] The mixture was incubated at 37 °C for 2 h. […] Filters containing the bound ^125I ligand were counted in a γ-counter (WALLAC Wizard 1470, PerkinElmer Life Sciences, Waltham, MA, USA) with 75% counting efﬁciency. The IC50 values were determined using GraphPad Prism 5.0, and those for the inhibition constant (Ki) were calculated using the Cheng Prusoff equation: Ki = IC50/(1 + [L]/Kd).

The nature of series [1]: Partition coefficient determination (n-octanol/PBS). In kind it is physicochemical. Particulars: n-octanol / PBS 0.02 M, pH 7.4. Here is the method: The determination of partition coefﬁcients of [^125I]8 and [^125I]17 was performed according to the procedure previously reported with some modifications. Ligand [^125I]8 or [^125I]17 (~5 μCi) was mixed with 3 mL each of n-octanol and PBS (0.02 M, pH 7.4) in a test tube. The test tube was vortexed for 5 min at room temperature, followed by centrifugation for 10 min at 3,000 rpm. Two weighed samples from the n-octanol (50 µL) and buffer layers (400 µL) were counted in a γ-counter. The partition coefﬁcient was expressed as the logarithm of the ratio of the counts per gram from n-octanol versus that of PBS. Samples from the n-octanol layer were repartitioned until consistent partition coefﬁcient values were obtained. The measurements were done in triplicate and repeated three times.

Series [2] can be described thus: In vivo biodistribution in normal mice. More on the design: species or system KunMing normal mice. Particulars: iv injection. The protocol: In vivo biodistribution studies were performed in KunMing normal mice (female, average weight 18–22 g) and in accordance with the national laws related to the care and experiments on laboratory animal. A saline solution (100 µL) containing [^125I]8 or [^125I]17 (1 µCi) was injected directly into the tail vein of mice. The mice (n = 5 for each time point) were sacriﬁced at designated time points post-injection. The organs of interest were removed and weighed, and the radioactivity was counted with an automatic γ-counter (WALLAC Wizard 1470).

The target of a further series is Aβ plaques (Homo sapiens, UniProt P05067). Kind of series: In vitro fluorescent staining of amyloid plaques in brain sections from transgenic mouse. In kind it is binding, transgenic model mouse (APP/PS1). Conditions: brain sections 8 µm, APP/PS1, 12 months, male; 1 µM. Here is the method: Parafﬁn-embedded brain sections of transgenic model mouse (8 µm, APP/PS1, 12 months, male) were used for the in vitro fluorescent staining of amyloid plaques. The brain sections were deparafﬁnized with xylene, ethanol and distilled water. After immersion in PBS (0.02 M, pH 7.4) for 30 min, the brain sections were incubated with 20% ethanol solution (1 µM) of compound 8 for 10 min. The localization of plaques was confirmed by staining with thioﬂavin-S on the adjacent sections. Finally, the sections were washed with 40% ethanol and PBS (0.02 M, pH 7.4). Fluorescent observation was performed by a Stereo Discovery V12 instrument (Zeiss, Oberkochen, Germany) equipped with a LP 505 filter set (excitation, 405 nm).

On the set-up of series [3]: method as in PMID 12519062. Particulars: normal mice, cited from earlier work.

Entries after “also recorded” stand apart in the source; their conditions may differ. Where two headings read alike, the source gives them in different places.

In general, Ki refers to the equilibrium dissociation constant of an inhibitor or competing ligand from its target. High values mean weaker binding, low ones tighter binding. Usually melting point stands for the temperature, or range, at which the solid turns liquid. In general, logD refers to the decadic logarithm of the distribution of all forms, ionised or not, between an organic phase and buffer at a given pH. High values mean higher lipophilicity, low ones lower lipophilicity.

T1 sequence (P05067 672-711 limits assumed): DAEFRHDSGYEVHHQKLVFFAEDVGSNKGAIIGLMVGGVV
Sequence of Aβ plaques (P05067 672-711 limits assumed): as above

`Ic1ccc(/C=C/c2ccc3ncccc3c2)cc1` [Compound 17, (E)-6-(4-Iodostyryl)quinoline]: the melting point was 173 to 174 °C. Further, the Ki on Aβ1–40 aggregates turned out to be 8.6 ± 1.2 nM.

At Aβ1–40 aggregates, `COc1ccc(/C=C/c2ccc3[nH]ccc3c2)cc1` [Compound 10, (E)-5-(4-Methoxystyryl)-1H-indole] gave a Ki of 32.4 ± 1.9 nM.

Consider `Brc1ccc(/C=C/c2ccc3ncccc3c2)cc1` [Compound 16, (E)-6-(4-Bromostyryl)quinoline], for which, on Aβ1–40 aggregates, the affinity, expressed as Ki, was 23.5 ± 1.3 nM. This Ki and that of the molecule before are within 1.5-fold of each other.

At Aβ1–40 aggregates, “(E)-5-(4-Methoxystyryl)-1H-indole [Compound 9]” showed a Ki of 15.8 ± 1.5 nM. The Ki values of the last two molecules are within 1.5-fold of each other.

For the molecule `[125I]c1ccc(/C=C/c2ccc3ncccc3c2)cc1` [[^125I]17], the logD in series [1] is 2.73. In addition, in series [2] (2 min), the “Biodistribution Blood” value is given as 11.39 ± 1.56 % ID/g, the “Biodistribution Brain” value turned out to be 2.05 ± 0.25 % ID/g, the “Biodistribution Heart” value is 7.70 ± 0.86 % ID/g and the “Biodistribution Kidney” value is 15.01 ± 1.56 % ID/g. For the same molecule, in series [2] (2 min), the “Biodistribution Liver” value was determined as 22.45 ± 1.79 % ID/g, the “Biodistribution Lung” value is 13.56 ± 1.71 % ID/g, the “Biodistribution Muscle” value was found to be 2.78 ± 0.42 % ID/g and the “Biodistribution Spleen” value came out at 5.88 ± 0.30 % ID/g. For the same molecule, the “Biodistribution Stomach” value in series [2] (2 min) was 4.05 ± 0.09 % ID/organ. In series [2] (15 min), the “Biodistribution Blood” value amounted to 6.31 ± 0.51 % ID/g, the “Biodistribution Brain” value was 1.18 ± 0.17 % ID/g, the “Biodistribution Heart” value came out at 3.80 ± 0.12 % ID/g and the “Biodistribution Kidney” value is listed as 7.47 ± 1.01 % ID/g. In series [2] (15 min), the “Biodistribution Liver” value came out at 9.95 ± 0.18 % ID/g, the “Biodistribution Lung” value is 6.42 ± 0.47 % ID/g, the “Biodistribution Muscle” value is 1.68 ± 0.20 % ID/g and the “Biodistribution Spleen” value worked out at 5.91 ± 0.58 % ID/g. In addition, in series [2] (15 min), the “Biodistribution Stomach” value came out at 15.84 ± 0.78 % ID/organ. In series [2] (30 min), the “Biodistribution Blood” value is recorded as 5.80 ± 0.37 % ID/g, the “Biodistribution Brain” value was determined as 0.93 ± 0.13 % ID/g, the “Biodistribution Heart” value was 3.21 ± 0.11 % ID/g and the “Biodistribution Kidney” value came out at 6.57 ± 0.50 % ID/g. For the same molecule, in series [2] (30 min), the “Biodistribution Liver” value is 9.12 ± 0.53 % ID/g, the “Biodistribution Lung” value was found to be 5.64 ± 0.41 % ID/g, the “Biodistribution Muscle” value is reported as 2.30 ± 0.32 % ID/g and the “Biodistribution Spleen” value amounted to 4.66 ± 0.52 % ID/g. Moreover, the “Biodistribution Stomach” value in series [2] (30 min) is recorded as 8.11 ± 1.21 % ID/organ. In addition, in series [2] (60 min), the “Biodistribution Blood” value worked out at 3.86 ± 0.74 % ID/g, the “Biodistribution Brain” value came out at 0.55 ± 0.11 % ID/g, the “Biodistribution Heart” value is given as 2.55 ± 0.21 % ID/g and the “Biodistribution Kidney” value turned out to be 4.72 ± 0.69 % ID/g. In series [2] (60 min), the “Biodistribution Liver” value is 6.97 ± 0.28 % ID/g, the “Biodistribution Lung” value was 4.55 ± 0.49 % ID/g, the “Biodistribution Muscle” value is given as 1.40 ± 0.34 % ID/g and the “Biodistribution Spleen” value is reported as 4.71 ± 0.97 % ID/g. Further, in series [2] (60 min), the “Biodistribution Stomach” value was found to be 6.75 ± 0.43 % ID/organ. Moreover, in series [2] (120 min), the “Biodistribution Blood” value is listed as 1.97 ± 0.35 % ID/g, the “Biodistribution Brain” value is recorded as 0.26 ± 0.03 % ID/g, the “Biodistribution Heart” value turned out to be 1.33 ± 0.06 % ID/g and the “Biodistribution Kidney” value is 2.20 ± 0.34 % ID/g. In addition, in series [2] (120 min), the “Biodistribution Liver” value was 3.93 ± 0.46 % ID/g, the “Biodistribution Lung” value was 2.01 ± 0.18 % ID/g, the “Biodistribution Muscle” value was 0.72 ± 0.21 % ID/g and the “Biodistribution Spleen” value is recorded as 2.25 ± 0.36 % ID/g. Besides, in series [2] (120 min), the “Biodistribution Stomach” value amounted to 11.12 ± 2.48 % ID/organ. For the same molecule, in series [2] (240 min), the “Biodistribution Blood” value is 1.38 ± 0.24 % ID/g, the “Biodistribution Brain” value is listed as 0.14 ± 0.02 % ID/g, the “Biodistribution Heart” value came out at 0.80 ± 0.19 % ID/g and the “Biodistribution Kidney” value was determined as 1.64 ± 0.23 % ID/g. For the same molecule, in series [2] (240 min), the “Biodistribution Liver” value was 2.96 ± 0.28 % ID/g, the “Biodistribution Lung” value was determined as 1.43 ± 0.28 % ID/g, the “Biodistribution Muscle” value was determined as 0.61 ± 0.08 % ID/g and the “Biodistribution Spleen” value is 1.59 ± 0.17 % ID/g. In addition, in series [2] (240 min), the “Biodistribution Stomach” value was found to be 7.03 ± 1.51 % ID/organ.

At Aβ1–40 aggregates, `Clc1ccc(/C=C/c2ccc3[nH]ccc3c2)cc1` [Compound 6, (E)-5-(4-Chlorostyryl)-1H-indole] yielded a Ki of 51.5 ± 1 nM.

`Fc1ccc(/C=C/c2ccc3ncccc3c2)cc1` [Compound 14, (E)-6-(4-Fluorostyryl)quinoline]: on Aβ1–40 aggregates, the Ki came to 270.4 ± 1.5 nM.

`Ic1ccc(/C=C/c2ccc3[nH]ccc3c2)cc1` [Compound 8, (E)-5-(4-Iodostyryl)-1H-indole] yielded a melting point of 211 to 212 °C. The molecule further came in with an inhibition constant Ki on Aβ1–40 aggregates of 4.1 ± 0.2 nM. The “Fluorescent staining of Aβ plaques” value on Aβ plaques is on record as “specific binding to Aβplaques; also recorded: clearly stained Aβ plaques”.

In turn, `Fc1ccc(/C=C/c2ccc3[nH]ccc3c2)cc1` [Compound 5, (E)-5-(4-Fluorostyryl)-1H-indole] registered a Ki at Aβ1–40 aggregates of 89.3 ± 2.6 nM.

`Cc1ccc(/C=C/c2ccc3ncccc3c2)cc1` [Compound 18, (E)-6-(4-Methylstyryl)quinoline] showed a Ki at Aβ1–40 aggregates of 288.4 ± 1.3 nM.

Consider `Brc1ccc(/C=C/c2ccc3[nH]ccc3c2)cc1` [Compound 7, (E)-5-(4-Bromostyryl)-1H-indole], for which the melting point lay within 215 to 216 °C. This molecule also showed a Ki on Aβ1–40 aggregates of 16.3 ± 1.7 nM.

The molecule `Clc1ccc(/C=C/c2ccc3ncccc3c2)cc1` [Compound 15, (E)-6-(4-Chlorostyryl)quinoline] returned a Ki at Aβ1–40 aggregates of 45 ± 1.3 nM.

Take `CN(C)c1ccc(-c2cn3cc([123I])ccc3n2)cc1` [[^123I]IMPY]: the results for the brain uptake in series [3] (2 min postinjection ref 16) and in series [3] (60 min postinjection ref 16) were 2.88 % ID/organ and 0.21 % ID/organ, respectively. For the same molecule, the brain2min/brain60min ratio in series [3] (from literature values ref 16) is on record as 13.7.

For `C(=C\c1ccc2[nH]ccc2c1)/c1ccccc1` [Compound 4, (E)-5-Styryl-1H-indole], the melting point is 162 to 163 °C. This molecule also gave a Ki at Aβ1–40 aggregates of 25.1 ± 2.1 nM.
